Test results reported in the kinase profiling compilation of Christmann-Franck et al. (2016).

Legend:
Assay in all cases: KINOMEscan competition binding
Settings in all cases: compound 10.0 µM
STK16 (human) = STK16 (human) (UniProt O75716)
MAPK10 (human) = MAPK10 (human) (UniProt P53779)
MAP2K6 (human) = MAP2K6 (human) (UniProt P52564)
RPS6KA1 KD1 (human) = RPS6KA1 KD1 (human) (UniProt Q15418)
EPHA1 (human) = EPHA1 (human) (UniProt P21709)
MAP2K2 (human) = MAP2K2 (human) (UniProt P36507)
FES (human) = FES (human) (UniProt P07332)
MINK1 (human) = MINK1 (human) (UniProt Q8N4C8)
SLK (human) = SLK (human) (UniProt Q9H2G2)
MKNK2 (human) = MKNK2 (human) (UniProt Q9HBH9)
MAP4K1 (human) = MAP4K1 (human) (UniProt Q92918)
PIM2 (human) = PIM2 (human) (UniProt Q9P1W9)
BLK (human) = BLK (human) (UniProt P51451)
Chain of BLK (human) (P51451 whole entry, looked up): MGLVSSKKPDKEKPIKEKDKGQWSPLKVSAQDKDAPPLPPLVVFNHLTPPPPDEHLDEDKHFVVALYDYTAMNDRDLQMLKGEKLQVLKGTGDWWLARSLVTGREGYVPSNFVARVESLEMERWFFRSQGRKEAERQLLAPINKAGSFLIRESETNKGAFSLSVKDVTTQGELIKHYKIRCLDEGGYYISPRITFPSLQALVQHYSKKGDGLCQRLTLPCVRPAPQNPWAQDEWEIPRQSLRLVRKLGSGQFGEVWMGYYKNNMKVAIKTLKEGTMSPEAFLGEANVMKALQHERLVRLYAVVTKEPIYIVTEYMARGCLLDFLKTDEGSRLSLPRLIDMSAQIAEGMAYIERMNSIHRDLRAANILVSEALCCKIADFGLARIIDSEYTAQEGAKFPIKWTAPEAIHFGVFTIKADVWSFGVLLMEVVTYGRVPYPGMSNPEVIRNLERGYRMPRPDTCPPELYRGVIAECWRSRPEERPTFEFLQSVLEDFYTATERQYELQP

GAK (human) = GAK (human) (UniProt O14976)
FLT3 (human) = FLT3 (human) (UniProt P36888)
BMPR1B (human) = BMPR1B (human) (UniProt O00238)
NTRK3 (human) = NTRK3 (human) (UniProt Q16288)
FGFR2 (human) = FGFR2 (human) (UniProt P21802)
NTRK1 (human) = NTRK1 (human) (UniProt P04629)
STK32B (human) = STK32B (human) (UniProt Q9NY57)
DYRK1B (human) = DYRK1B (human) (UniProt Q9Y463)
LCK (human) = LCK (human) (UniProt P06239)
TTK (human) = TTK (human) (UniProt P33981)
Chain of TTK (human) (P33981 whole entry, looked up): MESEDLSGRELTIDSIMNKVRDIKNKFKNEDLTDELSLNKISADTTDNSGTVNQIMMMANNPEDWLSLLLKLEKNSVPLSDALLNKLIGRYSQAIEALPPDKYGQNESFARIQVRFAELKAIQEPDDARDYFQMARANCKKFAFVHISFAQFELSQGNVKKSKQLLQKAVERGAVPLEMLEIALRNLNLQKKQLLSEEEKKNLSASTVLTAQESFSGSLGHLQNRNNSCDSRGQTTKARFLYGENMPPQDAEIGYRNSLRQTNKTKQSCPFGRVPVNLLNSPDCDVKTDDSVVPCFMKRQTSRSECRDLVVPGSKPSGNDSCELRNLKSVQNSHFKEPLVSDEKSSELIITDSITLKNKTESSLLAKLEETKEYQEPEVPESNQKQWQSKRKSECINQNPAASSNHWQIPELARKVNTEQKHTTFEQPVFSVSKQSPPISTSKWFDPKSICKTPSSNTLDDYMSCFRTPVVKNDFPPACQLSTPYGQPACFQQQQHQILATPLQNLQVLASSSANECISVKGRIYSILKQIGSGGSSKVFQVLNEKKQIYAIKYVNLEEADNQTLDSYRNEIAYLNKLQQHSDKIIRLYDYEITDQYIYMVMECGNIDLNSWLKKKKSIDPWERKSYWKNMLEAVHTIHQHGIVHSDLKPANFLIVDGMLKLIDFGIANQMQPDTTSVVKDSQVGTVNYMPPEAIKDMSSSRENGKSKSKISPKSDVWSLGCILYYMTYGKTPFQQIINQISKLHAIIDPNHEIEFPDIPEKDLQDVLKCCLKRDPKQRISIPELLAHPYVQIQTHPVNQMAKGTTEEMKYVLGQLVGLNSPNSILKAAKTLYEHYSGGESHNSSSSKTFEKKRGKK

PAK4 (human) = PAK4 (human) (UniProt O96013)
FGFR3 (human) = FGFR3 (human) (UniProt P22607)
MAP2K4 (human) = MAP2K4 (human) (UniProt P45985)
RPS6KA3 KD1 (human) = RPS6KA3 KD1 (human) (UniProt P51812)
Chain of RPS6KA3 KD1 (human) (P51812 whole entry, looked up): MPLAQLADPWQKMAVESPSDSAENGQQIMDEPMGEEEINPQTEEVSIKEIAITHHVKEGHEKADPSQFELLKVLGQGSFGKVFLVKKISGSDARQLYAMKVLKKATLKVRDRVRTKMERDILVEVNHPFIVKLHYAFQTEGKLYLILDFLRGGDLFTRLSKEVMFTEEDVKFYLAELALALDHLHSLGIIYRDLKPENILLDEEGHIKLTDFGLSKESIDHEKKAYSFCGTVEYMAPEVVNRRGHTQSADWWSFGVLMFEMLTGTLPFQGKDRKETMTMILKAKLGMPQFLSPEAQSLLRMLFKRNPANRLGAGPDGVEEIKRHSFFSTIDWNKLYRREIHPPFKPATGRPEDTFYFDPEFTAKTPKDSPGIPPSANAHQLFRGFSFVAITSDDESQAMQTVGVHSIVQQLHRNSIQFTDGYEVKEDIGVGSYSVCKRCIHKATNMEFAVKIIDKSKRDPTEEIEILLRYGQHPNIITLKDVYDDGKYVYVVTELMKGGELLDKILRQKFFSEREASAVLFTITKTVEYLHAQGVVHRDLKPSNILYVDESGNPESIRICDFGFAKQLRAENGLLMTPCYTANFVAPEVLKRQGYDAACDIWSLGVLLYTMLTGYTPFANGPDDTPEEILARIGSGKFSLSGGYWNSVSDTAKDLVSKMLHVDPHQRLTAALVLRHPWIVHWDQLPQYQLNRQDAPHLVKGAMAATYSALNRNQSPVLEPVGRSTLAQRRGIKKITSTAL

DCLK1 (human) = DCLK1 (human) (UniProt O15075)
Chain of DCLK1 (human) (O15075 whole entry, looked up): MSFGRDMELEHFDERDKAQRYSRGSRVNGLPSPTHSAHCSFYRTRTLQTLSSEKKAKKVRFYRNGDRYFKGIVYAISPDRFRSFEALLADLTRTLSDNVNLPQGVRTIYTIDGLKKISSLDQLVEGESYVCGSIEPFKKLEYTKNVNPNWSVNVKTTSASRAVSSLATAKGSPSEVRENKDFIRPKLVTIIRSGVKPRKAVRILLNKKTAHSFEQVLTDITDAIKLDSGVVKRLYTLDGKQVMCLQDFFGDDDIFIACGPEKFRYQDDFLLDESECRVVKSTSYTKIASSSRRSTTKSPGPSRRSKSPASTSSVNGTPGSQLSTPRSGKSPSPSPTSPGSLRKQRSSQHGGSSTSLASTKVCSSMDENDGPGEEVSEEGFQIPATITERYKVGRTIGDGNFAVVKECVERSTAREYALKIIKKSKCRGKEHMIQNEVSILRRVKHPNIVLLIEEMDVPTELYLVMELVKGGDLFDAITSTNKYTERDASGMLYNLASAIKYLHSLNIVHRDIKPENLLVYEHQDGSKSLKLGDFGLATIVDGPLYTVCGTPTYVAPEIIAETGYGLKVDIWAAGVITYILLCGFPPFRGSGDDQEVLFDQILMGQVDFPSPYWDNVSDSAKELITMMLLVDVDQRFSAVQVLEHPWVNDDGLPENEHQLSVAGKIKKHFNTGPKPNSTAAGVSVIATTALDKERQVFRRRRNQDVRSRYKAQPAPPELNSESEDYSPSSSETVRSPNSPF

EPHA8 (human) = EPHA8 (human) (UniProt P29322)
MAP3K10 (human) = MAP3K10 (human) (UniProt Q02779)
FER (human) = FER (human) (UniProt P16591)
PAK7 (human) = PAK7 (human) (UniProt Q9P286)
GSK3B (human) = GSK3B (human) (UniProt P49841)
MLTK (human) = MLTK (human) (UniProt Q9NYL2)
STK38L (human) = STK38L (human) (UniProt Q9Y2H1)
PDGFRA (human) = PDGFRA (human) (UniProt P16234)
CSNK1G1 (human) = CSNK1G1 (human) (UniProt Q9HCP0)
Chain of CSNK1G1 (human) (Q9HCP0 whole entry, looked up): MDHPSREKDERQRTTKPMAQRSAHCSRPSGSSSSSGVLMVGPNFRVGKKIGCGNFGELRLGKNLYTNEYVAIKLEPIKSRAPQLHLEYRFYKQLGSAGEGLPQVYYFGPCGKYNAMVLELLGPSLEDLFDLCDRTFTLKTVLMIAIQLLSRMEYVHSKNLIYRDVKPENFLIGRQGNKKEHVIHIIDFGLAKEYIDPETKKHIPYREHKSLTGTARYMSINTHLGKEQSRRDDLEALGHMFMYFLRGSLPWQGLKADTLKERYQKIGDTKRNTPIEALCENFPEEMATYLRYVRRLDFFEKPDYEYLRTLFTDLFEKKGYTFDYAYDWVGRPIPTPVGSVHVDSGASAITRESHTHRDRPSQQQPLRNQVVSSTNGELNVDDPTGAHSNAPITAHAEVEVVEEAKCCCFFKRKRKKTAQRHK

[1] = tested on: EIF2AK4 KD2 (human), Q9P2K8 [S808G]
Chain of EIF2AK4 KD2 (human), Q9P2K8 [S808G] (Q9P2K8 whole entry S808G, looked up): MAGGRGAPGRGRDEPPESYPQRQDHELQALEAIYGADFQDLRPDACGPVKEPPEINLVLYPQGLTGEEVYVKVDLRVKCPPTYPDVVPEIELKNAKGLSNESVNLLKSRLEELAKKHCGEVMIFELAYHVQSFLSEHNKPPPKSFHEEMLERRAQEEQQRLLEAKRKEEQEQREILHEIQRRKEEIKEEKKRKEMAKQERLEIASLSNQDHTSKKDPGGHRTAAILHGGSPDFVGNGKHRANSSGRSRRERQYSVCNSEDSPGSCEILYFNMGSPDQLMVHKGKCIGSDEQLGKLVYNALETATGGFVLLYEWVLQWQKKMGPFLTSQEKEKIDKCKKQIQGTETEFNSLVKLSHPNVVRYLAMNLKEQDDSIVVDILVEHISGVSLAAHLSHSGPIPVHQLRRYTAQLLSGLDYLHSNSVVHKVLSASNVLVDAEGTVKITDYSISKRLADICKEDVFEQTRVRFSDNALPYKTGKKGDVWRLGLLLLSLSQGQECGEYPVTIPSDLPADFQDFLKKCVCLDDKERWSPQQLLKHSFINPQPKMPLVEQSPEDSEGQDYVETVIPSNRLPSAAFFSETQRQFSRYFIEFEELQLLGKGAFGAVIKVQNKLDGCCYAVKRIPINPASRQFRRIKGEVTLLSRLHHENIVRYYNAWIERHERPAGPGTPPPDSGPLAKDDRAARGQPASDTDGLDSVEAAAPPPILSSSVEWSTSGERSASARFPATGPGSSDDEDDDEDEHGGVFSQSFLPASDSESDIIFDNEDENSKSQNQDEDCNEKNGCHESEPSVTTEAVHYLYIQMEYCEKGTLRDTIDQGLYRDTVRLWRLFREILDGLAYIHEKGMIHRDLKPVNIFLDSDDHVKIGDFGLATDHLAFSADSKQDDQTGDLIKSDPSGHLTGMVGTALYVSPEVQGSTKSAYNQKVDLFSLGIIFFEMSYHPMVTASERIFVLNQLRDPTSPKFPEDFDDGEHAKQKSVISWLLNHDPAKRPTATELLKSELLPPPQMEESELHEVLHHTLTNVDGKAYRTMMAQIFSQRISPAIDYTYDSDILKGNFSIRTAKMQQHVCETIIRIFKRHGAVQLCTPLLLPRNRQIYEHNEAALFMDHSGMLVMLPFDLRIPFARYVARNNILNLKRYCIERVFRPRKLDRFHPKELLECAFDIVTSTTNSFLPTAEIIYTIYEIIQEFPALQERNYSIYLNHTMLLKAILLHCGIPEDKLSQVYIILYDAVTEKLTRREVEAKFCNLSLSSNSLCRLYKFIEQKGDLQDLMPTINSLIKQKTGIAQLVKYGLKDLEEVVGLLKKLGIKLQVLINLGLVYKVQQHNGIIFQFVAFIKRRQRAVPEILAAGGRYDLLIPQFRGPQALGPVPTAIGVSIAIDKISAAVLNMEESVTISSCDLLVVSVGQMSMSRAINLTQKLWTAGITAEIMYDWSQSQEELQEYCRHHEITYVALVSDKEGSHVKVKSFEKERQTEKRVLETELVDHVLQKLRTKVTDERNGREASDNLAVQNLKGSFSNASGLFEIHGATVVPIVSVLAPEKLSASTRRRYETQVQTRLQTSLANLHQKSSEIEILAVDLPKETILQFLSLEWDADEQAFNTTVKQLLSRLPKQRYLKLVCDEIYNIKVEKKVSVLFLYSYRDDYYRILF

TAOK3 (human) = TAOK3 (human) (UniProt Q9H2K8)
SRMS (human) = SRMS (human) (UniProt Q9H3Y6)

Row | Compound | kinase still bound, per cent of control (STK16 (human)) [%] | kinase still bound, per cent of control (MAPK10 (human)) [%] | kinase still bound, per cent of control (MAP2K6 (human)) [%] | kinase still bound, per cent of control (RPS6KA1 KD1 (human)) [%] | kinase still bound, per cent of control (EPHA1 (human)) [%] | kinase still bound, per cent of control (MAP2K2 (human)) [%] | kinase still bound, per cent of control (FES (human)) [%] | kinase still bound, per cent of control (MINK1 (human)) [%] | kinase still bound, per cent of control (SLK (human)) [%] | kinase still bound, per cent of control (MKNK2 (human)) [%] | kinase still bound, per cent of control (MAP4K1 (human)) [%] | kinase still bound, per cent of control (PIM2 (human)) [%] | kinase still bound, per cent of control (BLK (human)) [%] | kinase still bound, per cent of control (GAK (human)) [%] | kinase still bound, per cent of control (FLT3 (human)) [%] | kinase still bound, per cent of control (NTRK3 (human)) [%] | kinase still bound, per cent of control (NTRK1 (human)) [%] | kinase still bound, per cent of control (STK32B (human)) [%] | kinase still bound, per cent of control (LCK (human)) [%] | kinase still bound, per cent of control (TTK (human)) [%] | also measured
1 | CCN1CCN(Cc2ccc(Nc3ncc4c(n3)N(C)c3ccccc3C(=O)N4C)cc2C(F)(F)F)CC1 | 15 | 100 | 75 | 100 | 61 | 89 | 100 | 68 | 2.4 | 0.2 | 18 | 30 | 8.3 | 12 | 100 | 100 | 34 | 100 | 5 | 77 | kinase still bound, per cent of control (BMPR1B (human)): 53%; kinase still bound, per cent of control (FGFR2 (human)): 50%; kinase still bound, per cent of control (DYRK1B (human)): 68%; kinase still bound, per cent of control (PAK4 (human)): 80%; kinase still bound, per cent of control (FGFR3 (human)): 43%; kinase still bound, per cent of control (MAP2K4 (human)): 100%; kinase still bound, per cent of control (RPS6KA3 KD1 (human)): 28%; kinase still bound, per cent of control (DCLK1 (human)): 4.4%; kinase still bound, per cent of control (EPHA8 (human)): 100%; kinase still bound, per cent of control (MAP3K10 (human)): 100%; kinase still bound, per cent of control (FER (human)): 100%; kinase still bound, per cent of control (PAK7 (human)): 81%; kinase still bound, per cent of control (GSK3B (human)): 47%; kinase still bound, per cent of control (MLTK (human)): 65%; kinase still bound, per cent of control (STK38L (human)): 90%; kinase still bound, per cent of control (PDGFRA (human)): 100%; kinase still bound, per cent of control (CSNK1G1 (human)): 7.6%; kinase still bound, per cent of control [1]: 88%; kinase still bound, per cent of control (TAOK3 (human)): 0.1%; kinase still bound, per cent of control (SRMS (human)): 54%
2 | Cc1cc([C@@H](C)Nc2ccccc2C(=O)O)c2nc(N3CCOCC3)cc(=O)n2c1 | 77 | 82 | 92 | 73 | 100 | 100 | 94 | 100 | 100 | 92 | 100 | 70 | 99 | 75 | 13 | 98 | 88 | 71 | 97 | 100 | kinase still bound, per cent of control (BMPR1B (human)): 69%; kinase still bound, per cent of control (PAK4 (human)): 100%; kinase still bound, per cent of control (FGFR3 (human)): 83%; kinase still bound, per cent of control (MAP2K4 (human)): 100%; kinase still bound, per cent of control (RPS6KA3 KD1 (human)): 91%; kinase still bound, per cent of control (DCLK1 (human)): 78%; kinase still bound, per cent of control (EPHA8 (human)): 96%; kinase still bound, per cent of control (MAP3K10 (human)): 96%; kinase still bound, per cent of control (FER (human)): 100%; kinase still bound, per cent of control (PAK7 (human)): 99%; kinase still bound, per cent of control (GSK3B (human)): 100%; kinase still bound, per cent of control (MLTK (human)): 100%; kinase still bound, per cent of control (STK38L (human)): 94%; kinase still bound, per cent of control (PDGFRA (human)): 84%; kinase still bound, per cent of control (CSNK1G1 (human)): 68%; kinase still bound, per cent of control [1]: 100%; kinase still bound, per cent of control (TAOK3 (human)): 100%; kinase still bound, per cent of control (SRMS (human)): 63%
3 | CCC(=O)N1CCN(c2ccc(-n3c(=O)ccc4cnc5ccc(-c6cnc7ccccc7c6)cc5c43)cc2C(F)(F)F)CC1 | 18 | 31 | 100 | 68 | 62 | 100 | 41 | 19 | 94 | 54 | 30 | 62 | 75 | 57 | 16 | 100 | 64 | 87 | 77 | 9.6 | kinase still bound, per cent of control (FGFR2 (human)): 55%; kinase still bound, per cent of control (DYRK1B (human)): 87%; kinase still bound, per cent of control (PAK4 (human)): 100%; kinase still bound, per cent of control (FGFR3 (human)): 42%; kinase still bound, per cent of control (MAP2K4 (human)): 30%; kinase still bound, per cent of control (RPS6KA3 KD1 (human)): 38%; kinase still bound, per cent of control (DCLK1 (human)): 100%; kinase still bound, per cent of control (EPHA8 (human)): 71%; kinase still bound, per cent of control (MAP3K10 (human)): 99%; kinase still bound, per cent of control (PAK7 (human)): 87%; kinase still bound, per cent of control (GSK3B (human)): 100%; kinase still bound, per cent of control (MLTK (human)): 22%; kinase still bound, per cent of control (STK38L (human)): 94%; kinase still bound, per cent of control (PDGFRA (human)): 63%; kinase still bound, per cent of control (CSNK1G1 (human)): 100%; kinase still bound, per cent of control [1]: 99%; kinase still bound, per cent of control (TAOK3 (human)): 76%; kinase still bound, per cent of control (SRMS (human)): 92%
